Measurements: US20110118238A1, “2-ANILINOPURIN-8-ONES AS INHIBITORS OF TTK/MPS1 FOR THE TREATMENT OF PROLIFERATIVE DISORDERS” (ASTRAZENECA AB, priority 2007, published 2011)
pIC50: −log10 of the molar value.

How the values were obtained:
[1] = system: human colon tumour cell line HT29; assay: Spindle Checkpoint Abrogation Assay (phosphohistone H3 serine 10); type: cell-based; settings: HT-29, HT29 cells, paclitaxol 7.8 nM, compound 5 h, histone H3 serine 10 positive cells, read-out: SCAA: Spindle checkpoint abrogation assay activity
Excerpt: Chromosome condensation in mitosis is accompanied by phosphorylation of histone H3 on serine 10. Dephosphorylation begins in anaphase and ends at early telophase, thus histone H3 serine 10 phosphorylation acts as an excellent mitotic marker. Paclitaxol is a microtubule stabilising drug which perturbs microtubule dynamics, invokes the spindle checkpoint and arrests cells in mitosis. These cells are positive for histone H3 serine 10 phosphorylation. Inhibition of the spindle checkpoint overrides the mitotic block in the presence of paclitaxol and the histone H3 serine 10 endpoint is used as a marker to determine the ability of compounds of the present invention to exit mitotic arrest prematurely.
Cells of the human colon tumour cell line HT29 were seeded into 96 well black plates (Costar, Catalogue No 3904) in phenol red free Dulbecco's Modified Eagles Medium (DMEM) supplemented with 10% (v/v) FCS and 1% (v/v) L-Glutamine and incubated overnight at 37° C. Paclitaxol was added to the cells at a concentration of 7.8 nM and the cells incubated overnight prior to compound dosing. Test compounds were solubilised in DMSO, diluted to give a range of final assay concentrations, added to cells and incubated for 5 h at 37° C. […] The raw assay data were analysed by non-linear regression analysis and used to determine an IC50 value for each compound.

[2] = biological target: T1, N-terminal GST tagged full length human TTK kinase (Homo sapiens, UniProt P33981); assay: In Vitro TTK Kinase Assay 2 (Caliper LabChip LC3000); type: biochemical; settings: recombinant TTK, 12 μM ATP, read-out: EAA2: Enzyme Assay Activity (In Vitro TTK kinase assay 2)
T1 construct: N-terminal GST tagged full length human TTK kinase; GST (N); made in house; host or cells: insect cells
T1 sequence (P33981 1-857): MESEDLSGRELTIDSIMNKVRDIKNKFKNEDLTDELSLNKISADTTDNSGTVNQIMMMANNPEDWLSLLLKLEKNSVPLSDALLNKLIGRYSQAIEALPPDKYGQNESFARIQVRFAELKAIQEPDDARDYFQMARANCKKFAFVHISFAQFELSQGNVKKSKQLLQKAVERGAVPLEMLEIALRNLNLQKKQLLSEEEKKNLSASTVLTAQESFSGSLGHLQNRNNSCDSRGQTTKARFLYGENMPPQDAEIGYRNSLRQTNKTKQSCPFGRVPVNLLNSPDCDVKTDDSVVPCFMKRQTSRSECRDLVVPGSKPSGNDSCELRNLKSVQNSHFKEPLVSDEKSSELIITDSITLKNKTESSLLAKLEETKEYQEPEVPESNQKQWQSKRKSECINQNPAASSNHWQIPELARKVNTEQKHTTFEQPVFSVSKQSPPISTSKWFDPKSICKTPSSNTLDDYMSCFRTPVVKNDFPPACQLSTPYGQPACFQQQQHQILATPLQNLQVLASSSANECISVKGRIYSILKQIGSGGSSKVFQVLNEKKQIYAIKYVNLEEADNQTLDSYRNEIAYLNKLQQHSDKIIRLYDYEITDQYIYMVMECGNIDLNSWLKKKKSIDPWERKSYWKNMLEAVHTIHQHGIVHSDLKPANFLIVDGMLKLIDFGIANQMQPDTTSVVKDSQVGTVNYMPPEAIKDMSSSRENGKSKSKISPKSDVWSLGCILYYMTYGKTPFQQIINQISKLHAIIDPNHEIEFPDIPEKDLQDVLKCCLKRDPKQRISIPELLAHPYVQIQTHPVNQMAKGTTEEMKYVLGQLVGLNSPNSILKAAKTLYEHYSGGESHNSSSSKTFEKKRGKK
Experimental: Each reaction was stopped by the addition of EDTA to a concentration of 40 mM in a solution which also comprised 0.1% coating reagent (Caliper LS), 100 mM HEPES pH 7.5, 0.015% v/v Brij™-35 and 5% DMSO. The stopped enzyme reactions were sipped through capillaries onto a Caliper chip where the peptide substrate and phosphorylated product were separated and detected via laser-induced fluorescence.

[3] = biological target: T1, N-terminal GST tagged full length human TTK kinase; assay: In Vitro TTK Kinase Assay 1 (AlphaScreen); type: biochemical; settings: recombinant TTK, 10 μM ATP, read-out: EAA: Enzyme Assay Activity (In Vitro TTK kinase assay 1)
Experimental: Aliquots (2 μL) of each compound dilution were placed into wells of a Greiner 384-well low volume white polystyrene plate (Greiner Bio-one).
The resultant signals arising from laser light excitation at 680 nm were read using a Packard Envision instrument.

Row | pIC50 [1] | pIC50 [2] | pIC50 [3] | Structure (SMILES)
1 | 5.64 | 6.88 |  | Cn1c(=O)n(C2CCCC2)c2nc(Nc3ccc(S(C)(=O)=O)cc3F)ncc21 [Example 3, 9-Cyclopentyl-2-{[2-fluoro-4-(methylsulfonyl)phenyl]amino}-7-methyl-7,9-dihydro-8H-purin-8-one]
2 | 5.43 | 6.20 |  | CN1CCN(S(=O)(=O)c2ccc(Nc3ncc4c(n3)n(C3CCCC3)c(=O)n4C)cc2)CC1 [Example 13, 9-Cyclopentyl-7-methyl-2-({4-[(4-methylpiperazin-1-yl)-sulfonyl]-phenyl}amino)-7,9-dihydro-8H-purin-8-one]
3 |  | 7.83 | 6.60 | CN1CCN(c2ccc(Nc3ncc4c(n3)n(C3CCCC3)c(=O)n4C)c(Cl)c2)CC1 [Example 18, 2-{[2-Chloro-4-(4-methylpiperazin-1-yl)phenyl]amino}-9-cyclopentyl-7-methyl-7,9-dihydro-8H-purin-8-one]
4 |  | 7.40 | 6.60 | COc1cc(N2CCCN(C)CC2)ccc1Nc1ncc2c(n1)n(C1CCCC1)c(=O)n2C [Example 20, 9-Cyclopentyl-2-{[2-methoxy-4-(4-methyl-1,4-diazepan-1-yl)-phenyl]amino}-7-methyl-7,9-dihydro-8H-purin-8-one]
5 |  | 7.33 | 6.42 | CCOc1cc(N2CCCN(C)CC2)ccc1Nc1ncc2c(n1)n(C1CCCC1)c(=O)n2C [Example 21, 9-Cyclopentyl-2-{[2-ethoxy-4-(4-methyl-1,4-diazepan-1-yl)-phenyl]amino}-7-methyl-7,9-dihydro-8H-purin-8-one]
6 |  | 6.93 | 6.50 | COc1cc(NC2CCN(C)CC2)ccc1Nc1ncc2c(n1)n(C1CCCC1)c(=O)n2C [Example 22, 9-Cyclopentyl-2-({2-methoxy-4-[(1-methylpiperidin-4-yl)-amino]-phenyl}amino)-7-methyl-7,9-dihydro-8H-purin-8-one]
7 |  | 7.12 | 6.15 | CCOc1cc(N2CCC(N(C)C)CC2)ccc1Nc1ncc2c(n1)n(C1CCCC1)c(=O)n2C [Example 23, 9-Cyclopentyl-2-({4-[4-(dimethylamino)piperidin-1-yl]-2-ethoxyphenyl}amino)-7-methyl-7,9-dihydro-8H-purin-8-one]
8 |  | 7.76 | 6.82 | COc1cc(OC2CCN(C)C2)ccc1Nc1ncc2c(n1)n(C1CCCC1)c(=O)n2C (stereo not shown) [Example 24, 9-Cyclopentyl-2-({2-methoxy-4-[(1-methylpyrrolidin-3-yl)-oxy]-phenyl}amino)-7-methyl-7,9-dihydro-8H-purin-8-one]
9 |  | 7.54 | 6.83 | CCOc1cc(OCCN(C)C)ccc1Nc1ncc2c(n1)n(C1CCCC1)c(=O)n2C [Example 25, 9-Cyclopentyl-2-({4-[2-(dimethylamino)ethoxy]-2-ethoxy-phenyl}-amino)-7-methyl-7,9-dihydro-8H-purin-8-one]
10 |  | 7.59 | 7.29 | CCOc1cc(OC2CCN(C)CC2)ccc1Nc1ncc2c(n1)n(C1CCCC1)c(=O)n2C [Example 26, 9-Cyclopentyl-2-({2-ethoxy-4-[(1-methylpiperidin-4-yl)-oxy]-phenyl}amino)-7-methyl-7,9-dihydro-8H-purin-8-one]
11 |  | 7.62 | 6.54 | COc1cc(CCN2CCN(C)CC2)ccc1Nc1ncc2c(n1)n(C1CCCC1)c(=O)n2C [Example 27, 9-Cyclopentyl-2-({2-methoxy-4-[2-(4-methylpiperazin-1-yl)-ethyl]phenyl}amino)-7-methyl-7,9-dihydro-8H-purin-8-one]
12 |  | 7.84 | 7.26 | COc1cc(C2CCN(C)CC2)ccc1Nc1ncc2c(n1)n(C1CCCC1)c(=O)n2C [Example 28, 9-Cyclopentyl-2-{[2-methoxy-4-(1-methylpiperidin-4-yl)-phenyl]amino}-7-methyl-7,9-dihydro-8H-purin-8-one]
13 |  | 7.27 | 6.66 | CCn1c(=O)n(C2CCCC2)c2nc(Nc3ccc(N4CCN(C)CC4)cc3OC)ncc21 [Example 29, 9-Cyclopentyl-7-ethyl-2-{[2-methoxy-4-(4-methylpiperazin-1-yl)-phenyl]amino}-7,9-dihydro-8H-purin-8-one]
14 |  | 7.97 | 7.04 | CCn1c(=O)n(C2CCCC2)c2nc(Nc3ccc(OC4CCN(C)CC4)cc3OC)ncc21 [Example 30, 9-Cyclopentyl-7-ethyl-2-({2-methoxy-4-[(1-methylpiperidin-4-yl)-oxy]phenyl}amino)-7,9-dihydro-8H-purin-8-one]
15 |  | 7.79 | 6.43 | CCn1c(=O)n(C2CCCC2)c2nc(Nc3ccc(C(=O)NC)cc3OC)ncc21 [Example 31, 4-[(9-Cyclopentyl-7-ethyl-8-oxo-8,9-dihydro-7H-purin-2-yl)-amino]-3-methoxy-N-methylbenzamide]
16 |  | 7.61 | 5.88 | CCn1c(=O)n(C2CCCC2)c2nc(Nc3ccc(S(C)(=O)=O)cc3OC)ncc21 [Example 32, 9-Cyclopentyl-7-ethyl-2-{[2-methoxy-4-(methylsulfonyl)-phenyl]-amino}-7,9-dihydro-8H-purin-8-one]
17 |  | 7.02 | 5.98 | CCn1c(=O)n(C2CCCC2)c2nc(Nc3ccc(S(N)(=O)=O)cc3)ncc21 [Example 34, 4-[(9-Cyclopentyl-7-ethyl-8-oxo-8,9-dihydro-7H-purin-2-yl)-amino]benzenesulfonamide]
18 |  | 7.67 | 6.66 | COc1cc(N2CCN(C)CC2)ccc1Nc1ncc2c(n1)n(C1CCCC1)c(=O)n2CC#N [Example 36, (9-Cyclopentyl-2-{[2-methoxy-4-(4-methylpiperazin-1-yl)-phenyl]-amino}-8-oxo-8,9-dihydro-7H-purin-7-yl)acetonitrile]
19 |  | 7.08 | 6.30 | COc1cc(C(=O)NC2CCN(C)CC2)ccc1Nc1ncc2c(n1)n(C1CCCC1)c(=O)n2CC#N [Example 37, 4-{[7-(Cyanomethyl)-9-cyclopentyl-8-oxo-8,9-dihydro-7H-purin-2-yl]amino}-3-methoxy-N-(1-methylpiperidin-4-yl)-benzamide]
20 |  | 6.88 | 5.82 | N#CCn1c(=O)n(C2CCCC2)c2nc(Nc3ccc(S(N)(=O)=O)cc3)ncc21 [Example 38, 4-{[7-(Cyanomethyl)-9-cyclopentyl-8-oxo-8,9-dihydro-7H-purin-2-yl]amino}benzenesulfonamide]
